Test results published in US20260166128A1, “HUMAN AMYLIN ANALOG, AND DERIVATIVE THEREOF AND USE THEREOF” (priority 2022, published 2026).
Numbered stars: 1 amine (or outer) side, 2 acyl side, 3 side chain; on linkers, the order of the positions; unused ones are H or OH. Bridge positions count the residues as written; N and C are the ends. Square brackets hold non-standard residues; d marks the D form. Side chains are listed from the residue outwards. Peptide text beside a SMILES is read from it. * marks the point of attachment. C20 diacid = O=C(O)CCCCCCCCCCCCCCCCCCC(=O)*; C18 diacid = O=C(O)CCCCCCCCCCCCCCCCC(=O)*; γGlu = O=C(O)[C@H](CCC(=O)[*:2])N[*:1]; Hyp = O=C(O)[C@@H]1C[C@@H](O)CN1; AEEA = NCCOCCOCC(=O)O

What was measured:
human amylin receptor = molecular target: T1, human amylin receptor (Homo sapiens, UniProt O60896+P30988); assay: Luciferase assay of amylin derivatives in amylin receptor/CRE-luc CHO cell line; type: cell-based; settings: CHO-K1/Ga15/AMY3 CRE-luc cells, 24 hours incubation, F12 medium containing 10% FBS; read-out: EC50
T1 construct: host or cells: CHO-K1/Ga15/AMY3 cells, further stably transfected with a CRE-luciferase plasmid
T1 sequence (P30988 25-474): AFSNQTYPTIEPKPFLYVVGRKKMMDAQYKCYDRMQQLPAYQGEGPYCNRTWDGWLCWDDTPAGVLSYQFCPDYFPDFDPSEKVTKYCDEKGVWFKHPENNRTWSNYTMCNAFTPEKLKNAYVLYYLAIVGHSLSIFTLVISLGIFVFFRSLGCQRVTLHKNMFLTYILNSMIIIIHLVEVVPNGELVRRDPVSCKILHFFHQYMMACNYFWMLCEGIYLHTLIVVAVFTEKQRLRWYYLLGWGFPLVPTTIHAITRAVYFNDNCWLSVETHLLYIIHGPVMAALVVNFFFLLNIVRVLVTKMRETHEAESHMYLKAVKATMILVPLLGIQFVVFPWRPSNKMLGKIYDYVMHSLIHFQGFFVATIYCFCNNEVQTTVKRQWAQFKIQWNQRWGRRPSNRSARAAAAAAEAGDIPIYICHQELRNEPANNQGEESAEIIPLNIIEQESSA
T1 sequence (O60896 24-148 partner): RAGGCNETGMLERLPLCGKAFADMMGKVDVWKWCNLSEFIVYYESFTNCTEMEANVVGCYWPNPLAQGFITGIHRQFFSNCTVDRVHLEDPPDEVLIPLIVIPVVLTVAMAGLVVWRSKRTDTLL
Description: The experiment was intended to detect the activity or efficacy of the amylin derivatives on a human amylin receptor in vitro by luciferase assay.
50 μL of growth medium (F12 medium containing 10% FBS) was added into each well of a white 96-well plate, and the stably transfected amylin/CRE-lue CHO cells were inoculated into the white 96-well plate at a density of about 20,000 cells/well for activity determination.

[1] = Freeze-thaw stability of derivatives (freeze-thaw yield by liquid chromatography); type: physicochemical; settings: for Dissolution property: appearance after dissolution at 0.2 mg/ml in 20 mM phosphate buffer solution (PB) (pH 7.0); for Freeze storage property: appearance after overnight storage at −20° C. and thawing to room temperature, 0.2 mg/ml in 20 mM PB (pH 7.0); for Freeze storage yield: concentration of polypeptide after freezing and thawing / concentration before, by liquid chromatography, −20° C. overnight
In short: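 Freeze-thaw yield is the ratio of peptide concentration after versus before one overnight −20° C freeze and room-temperature thaw, both quantified by RP-HPLC of supernatant after centrifugation. Samples were 0.2 mg/ml freeze-dried derivative in 20 mM PB, pH 7.0.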

| SMILES | EC50 (human amylin receptor) [pM] | Dissolution property [1] | Freeze storage property [1] | Freeze storage yield [1] [%] |
| --- | --- | --- | --- | --- |
| CC[C@H](C)[C@H](NC(=O)[C@@H]1CCCN1C(=O)CNC(=O)[C@H](CC(C)C)NC(=O)[C@H](CC(N)=O)NC(=O)[C@H](CCCCNC(=O)CC[C@H](NC(=O)CCCCCCCCCCCCCCCCCCC(=O)O)C(=O)O)NC(=O)[C@H](CO)NC(=O)[C@H](CO)NC(=O)[C@H](Cc1c[nH]cn1)NC(=O)[C@H](CCCNC(=N)N)NC(=O)[C@H](CC(C)C)NC(=O)[C@H](Cc1ccccc1)NC(=O)[C@H](CCC(=O)O)NC(=O)[C@H](C)NC(=O)[C@H](CC(C)C)NC(=O)[C@H](CCCNC(=N)N)NC(=O)[C@H](CCC(N)=O)NC(=O)[C@@H](NC(=O)[C@H](C)NC(=O)[C@@H]1CSSC[C@H](NC(=O)[C@@H](N)CCCNC(=N)N)C(=O)N[C@@H](CC(N)=O)C(=O)N[C@@H]([C@@H](C)O)C(=O)N[C@@H](C)C(=O)N[C@@H]([C@@H](C)O)C(=O)N1)[C@@H](C)O)C(=O)N[C@@H](CC(C)C)C(=O)N1CCC[C@H]1C(=O)N1CCC[C@H]1C(=O)N[C@H](C(=O)N[C@@H](CC(N)=O)C(=O)N[C@H](C(=O)NCC(=O)N[C@@H](CO)C(=O)N[C@@H](CC(N)=O)C(=O)N[C@H](C(=O)N1CCC[C@H]1C(N)=O)[C@@H](C)O)C(C)C)[C@@H](C)O [PD006] (H-RCNTATCATQRLAEFLRHSSK([γGlu-C20 diacid])NLGPILPPTNVGSNTP-NH2; disulfide 2-7 (inferred); N-terminus assumed) | 129 | Clear | Clear |  |
| CC[C@H](C)[C@H](NC(=O)[C@@H]1CCCN1C(=O)[C@H](CCCCNC(=O)COCCOCCNC(=O)COCCOCCNC(=O)CC[C@H](NC(=O)CCCCCCCCCCCCCCCCCCC(=O)O)C(=O)O)NC(=O)[C@H](CC(C)C)NC(=O)[C@H](CC(N)=O)NC(=O)[C@H](CC(N)=O)NC(=O)[C@H](CO)NC(=O)[C@H](CO)NC(=O)[C@H](Cc1c[nH]cn1)NC(=O)[C@H](CCCNC(=N)N)NC(=O)[C@H](CC(C)C)NC(=O)[C@H](Cc1ccccc1)NC(=O)[C@H](CCC(=O)O)NC(=O)[C@H](C)NC(=O)[C@H](CC(C)C)NC(=O)[C@H](CCCNC(=N)N)NC(=O)[C@H](CCC(N)=O)NC(=O)[C@@H](NC(=O)[C@H](C)NC(=O)[C@@H]1CSSC[C@H](NC(=O)[C@@H](N)CCCNC(=N)N)C(=O)N[C@@H](CC(N)=O)C(=O)N[C@@H]([C@@H](C)O)C(=O)N[C@@H](C)C(=O)N[C@@H]([C@@H](C)O)C(=O)N1)[C@@H](C)O)C(=O)N[C@@H](CC(C)C)C(=O)N1CCC[C@H]1C(=O)N1CCC[C@H]1C(=O)N[C@H](C(=O)N[C@@H](CC(N)=O)C(=O)N[C@H](C(=O)NCC(=O)N[C@@H](CO)C(=O)N[C@@H](CC(N)=O)C(=O)N[C@H](C(=O)N1CCC[C@H]1C(N)=O)[C@@H](C)O)C(C)C)[C@@H](C)O [PD004] (H-RCNTATCATQRLAEFLRHSSNNLK([AEEA-AEEA-γGlu-C20 diacid])PILPPTNVGSNTP-NH2; disulfide 2-7 (inferred); N-terminus assumed) | 102 | Clear | Clear |  |

The next lines start with the values.

| EC50 (human amylin receptor) [pM] | Dissolution property [1] | Freeze storage property [1] | Freeze storage yield [1] [%] | SMILES |
| --- | --- | --- | --- | --- |
| 44 | Clear | Clear | 93.44 | CC[C@H](C)[C@H](NC(=O)[C@@H]1CCCN1C(=O)CNC(=O)[C@H](Cc1ccccc1)NC(=O)[C@H](CC(N)=O)NC(=O)[C@H](CC(N)=O)NC(=O)[C@H](CO)NC(=O)[C@H](CO)NC(=O)[C@H](Cc1c[nH]cn1)NC(=O)[C@H](CCCNC(=N)N)NC(=O)[C@H](CC(C)C)NC(=O)[C@H](Cc1ccccc1)NC(=O)[C@H](CCC(=O)O)NC(=O)[C@H](C)NC(=O)[C@H](CC(C)C)NC(=O)[C@H](CCCNC(=N)N)NC(=O)[C@H](CCC(N)=O)NC(=O)[C@@H](NC(=O)[C@H](C)NC(=O)[C@@H]1CSSC[C@H](NC(=O)[C@@H](N)CCCCNC(=O)CC[C@H](NC(=O)CCCCCCCCCCCCCCCCCCC(=O)O)C(=O)O)C(=O)N[C@@H](CC(N)=O)C(=O)N[C@@H]([C@@H](C)O)C(=O)N[C@@H](C)C(=O)N[C@@H]([C@@H](C)O)C(=O)N1)[C@@H](C)O)C(=O)N[C@@H](CC(C)C)C(=O)N1CCC[C@H]1C(=O)N1CCC[C@H]1C(=O)N[C@H](C(=O)N[C@@H](CC(N)=O)C(=O)N[C@H](C(=O)NCC(=O)N[C@@H](CO)C(=O)N[C@@H](CC(N)=O)C(=O)N[C@H](C(=O)N1CCC[C@H]1C(N)=O)[C@@H](C)O)C(C)C)[C@@H](C)O [PD066] |
| 19 | Clear | Clear | 99.86 | CC[C@H](C)[C@H](NC(=O)[C@@H]1CCCN1C(=O)CNC(=O)[C@H](CC(C)C)NC(=O)[C@H](CC(N)=O)NC(=O)[C@H](CCCCNC(=O)COCCOCCNC(=O)COCCOCCNC(=O)CC[C@H](NC(=O)CCCCCCCCCCCCCCCCC(=O)O)C(=O)O)NC(=O)[C@H](CO)NC(=O)[C@H](CO)NC(=O)[C@H](Cc1c[nH]cn1)NC(=O)[C@H](CCCNC(=N)N)NC(=O)[C@H](CC(C)C)NC(=O)[C@H](Cc1ccccc1)NC(=O)[C@H](CC(=O)O)NC(=O)[C@H](C)NC(=O)[C@H](CC(C)C)NC(=O)[C@H](CCCNC(=N)N)NC(=O)[C@H](CCC(N)=O)NC(=O)[C@@H](NC(=O)[C@H](C)NC(=O)[C@@H]1CSSC[C@H](NC(=O)[C@@H](N)CCCNC(=N)N)C(=O)N[C@@H](CC(N)=O)C(=O)N[C@@H]([C@@H](C)O)C(=O)N[C@@H](C)C(=O)N[C@@H]([C@@H](C)O)C(=O)N1)[C@@H](C)O)C(=O)N[C@@H](CC(C)C)C(=O)N1CCC[C@H]1C(=O)N1CCC[C@H]1C(=O)N[C@H](C(=O)N[C@@H](CC(N)=O)C(=O)N[C@H](C(=O)NCC(=O)N[C@@H](CO)C(=O)N[C@@H](CC(N)=O)C(=O)N[C@H](C(=O)N1C[C@H](O)C[C@H]1C(N)=O)[C@@H](C)O)C(C)C)[C@@H](C)O [PD093] (H-RCNTATCATQRLADFLRHSSK([AEEA-AEEA-γGlu-C18 diacid])NLGPILPPTNVGSNT[Hyp]-NH2; disulfide 2-7 (inferred); N-terminus assumed) |
| 28 | Clear | Clear | 96.86 | CC[C@H](C)[C@H](NC(=O)[C@@H]1CCCN1C(=O)[C@H](CCCCNC(=O)COCCOCCNC(=O)CC[C@H](NC(=O)CCCCCCCCCCCCCCCCC(=O)O)C(=O)O)NC(=O)[C@H](CC(C)C)NC(=O)[C@H](CC(N)=O)NC(=O)[C@H](CC(N)=O)NC(=O)[C@H](CO)NC(=O)[C@H](CO)NC(=O)[C@H](Cc1c[nH]cn1)NC(=O)[C@H](CCCNC(=N)N)NC(=O)[C@H](CC(C)C)NC(=O)[C@H](Cc1ccccc1)NC(=O)[C@H](CC(=O)O)NC(=O)[C@H](C)NC(=O)[C@H](CC(C)C)NC(=O)[C@H](CCCNC(=N)N)NC(=O)[C@H](CCC(N)=O)NC(=O)[C@@H](NC(=O)[C@H](C)NC(=O)[C@@H]1CSSC[C@H](NC(=O)[C@@H](N)CCCNC(=N)N)C(=O)N[C@@H](CC(N)=O)C(=O)N[C@@H]([C@@H](C)O)C(=O)N[C@@H](C)C(=O)N[C@@H]([C@@H](C)O)C(=O)N1)[C@@H](C)O)C(=O)N[C@@H](CC(C)C)C(=O)N1CCC[C@H]1C(=O)N1CCC[C@H]1C(=O)N[C@H](C(=O)N[C@@H](CC(N)=O)C(=O)N[C@H](C(=O)NCC(=O)N[C@@H](CO)C(=O)N[C@@H](CC(N)=O)C(=O)N[C@H](C(=O)N1C[C@H](O)C[C@H]1C(N)=O)[C@@H](C)O)C(C)C)[C@@H](C)O [PD108] (H-RCNTATCATQRLADFLRHSSNNLK([AEEA-γGlu-C18 diacid])PILPPTNVGSNT[Hyp]-NH2; disulfide 2-7 (inferred); N-terminus assumed) |
| 28 | Clear | Clear | 99.24 | CC[C@H](C)[C@H](NC(=O)[C@@H]1CCCN1C(=O)CNC(=O)[C@H](CC(C)C)NC(=O)[C@H](CC(N)=O)NC(=O)[C@H](CC(N)=O)NC(=O)[C@H](CO)NC(=O)[C@H](CO)NC(=O)[C@H](Cc1c[nH]cn1)NC(=O)[C@H](CCCNC(=N)N)NC(=O)[C@H](CC(C)C)NC(=O)[C@H](Cc1ccccc1)NC(=O)[C@H](CC(=O)O)NC(=O)[C@H](C)NC(=O)[C@H](CC(C)C)NC(=O)[C@H](CCCNC(=N)N)NC(=O)[C@H](CCC(N)=O)NC(=O)[C@@H](NC(=O)[C@H](C)NC(=O)[C@@H]1CSSC[C@H](NC(=O)[C@H](CCCCN)NC(=O)COCCOCCNC(=O)COCCOCCNC(=O)CC[C@H](NC(=O)CCCCCCCCCCCCCCCCC(=O)O)C(=O)O)C(=O)N[C@@H](CC(N)=O)C(=O)N[C@@H]([C@@H](C)O)C(=O)N[C@@H](C)C(=O)N[C@@H]([C@@H](C)O)C(=O)N1)[C@@H](C)O)C(=O)N[C@@H](CC(C)C)C(=O)N1CCC[C@H]1C(=O)N1CCC[C@H]1C(=O)N[C@H](C(=O)N[C@@H](CC(N)=O)C(=O)N[C@H](C(=O)NCC(=O)N[C@@H](CO)C(=O)N[C@@H](CC(N)=O)C(=O)N[C@H](C(=O)N1C[C@H](O)C[C@H]1C(N)=O)[C@@H](C)O)C(C)C)[C@@H](C)O [PD126] ({C18 diacid-γGlu-AEEA-AEEA}-KCNTATCATQRLADFLRHSSNNLGPILPPTNVGSNT[Hyp]-NH2; disulfide 2-7 (inferred)) |
